Data as given in PMC6215199 (Toxins, 2018).
“Also recorded” adds a separate entry of the source.

Key:
Batx-I [1] = target: T1, Batx-I (Bothrops atrox, UniProt P0DJE1); assay: biochemical; format: biochemical
Batx-I [2] = target: T1, Batx-I; format: biochemical
Batx-I [3] = target: T1, Batx-I; settings: cited from earlier work
BaP1 = settings: EDTA chelates the catalytic Zn2+ ion; cited from earlier work

T1 sequence (P0DJE1 whole entry, looked up): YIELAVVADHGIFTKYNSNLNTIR

C[C@H]1[C@H](C)CC[C@]2(C(=O)O)CC[C@]3(C)C(=CC[C@@H]4[C@@]5(C)C[C@@H](O)[C@H](O)[C@@](C)(CO)[C@@H]5[C@H](O)C[C@]43C)[C@H]12 [Madecassic acid]
IC50 (Batx-I [1]): 540 ± 80 µM

C=C(C)[C@@H]1CC[C@]2(C(=O)O)CC[C@]3(C)[C@H](CC[C@@H]4[C@@]5(C)CC[C@H](O)C(C)(C)[C@@H]5CC[C@]43C)[C@@H]12 [Betulinic acid]
IC50 (Batx-I [1]): 115 ± 16 µM
Type of inhibition (Batx-I [2]): competitive inhibitors
ΔG^∘ Experimental (Batx-I [2]): -4.5 ± 0.1 kcal/mol

C=C(C)[C@@H]1CC[C@]2(CO)CC[C@]3(C)[C@H](CC[C@@H]4[C@@]5(C)CC[C@H](O)C(C)(C)[C@@H]5CC[C@]43C)[C@@H]12 [Betulin]
Inhibition of metalloproteinase proteolytic activity (in words) (Batx-I [1]): negligible activity
IC50 (Batx-I [1]): 1470 ± 130 µM

C[C@H]1[C@H](C)CC[C@]2(C(=O)O)CC[C@]3(C)C(=CC[C@@H]4[C@@]5(C)CC[C@H](O)C(C)(C)[C@@H]5CC[C@]43C)[C@H]12 [Ursolic acid]
IC50 (Batx-I [1]): 220 ± 40 µM
Type of inhibition (Batx-I [2]): competitive inhibitors
ΔG^∘ Experimental (Batx-I [2]): -3.5 ± 0.1 kcal/mol

O=C(O)CN(CCN(CC(=O)O)CC(=O)O)CC(=O)O [EDTA, Ethylenediamine-tetraacetic acid]
Effect on proteolytic activity of Batx-I (Batx-I [3]): eliminated
Effect on proteolytic activity of BaP1 (BaP1): eliminated

CC1CCC2(C)CCC3(C)C(=CCC4C5(C)CCC(O)C(C)(C(=O)O)C5CCC43C)C2C1C (stereo not drawn) [β -Boswellic acid]
Inhibition of metalloproteinase proteolytic activity (in words) (Batx-I [1]): negligible activity; also recorded: does not inhibit
activity at 2000 µM (Batx-I [1]; read-out: Batx-I proteolytic activity still observed): 70%

CC1(C)CC[C@]2(C(=O)O)CC[C@]3(C)C(=CC[C@@H]4[C@@]5(C)CC[C@H](O)C(C)(C)[C@@H]5CC[C@]43C)[C@@H]2C1 [Oleanolic acid]
IC50 (Batx-I [1]): 360 ± 70 µM
Type of inhibition (Batx-I [2]): competitive inhibitors
ΔG^∘ Experimental (Batx-I [2]): -3.7 ± 0.1 kcal/mol
